For 11 compounds, inhibition and IL-8 inhibitory activity results are on record in patent US8648110B2, “2-aryl-acetic acids, their derivatives and pharmaceutical compositions containing them” (Dompe Pha.R.Ma S.p.A., priority 2003, dated 2014).

For orientation: inhibition means how much of the control response was suppressed. A lower inhibition goes with a weak effect.

One test deals with T1, CXCR2 (Homo sapiens, UniProt P25025).
T1 construct: endogenous in cells; host or cells: human polymorphonucleate leukocytes (PMNs) isolated from blood of healthy volunteers
T1 sequence (P25025 1-360): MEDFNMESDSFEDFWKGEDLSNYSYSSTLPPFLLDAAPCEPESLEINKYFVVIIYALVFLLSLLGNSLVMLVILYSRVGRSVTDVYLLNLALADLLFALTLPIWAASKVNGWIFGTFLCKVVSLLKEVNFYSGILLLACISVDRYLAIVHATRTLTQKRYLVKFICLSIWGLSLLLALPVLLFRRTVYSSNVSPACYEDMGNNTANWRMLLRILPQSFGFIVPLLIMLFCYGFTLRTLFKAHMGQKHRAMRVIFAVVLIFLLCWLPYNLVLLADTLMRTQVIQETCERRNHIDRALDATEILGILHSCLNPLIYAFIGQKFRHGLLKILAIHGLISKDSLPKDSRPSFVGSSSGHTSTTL
Briefly: GRO-α induced PMN chemotaxis (CXCR2). It is filed as cell-based. Conditions: compound c = 10^−8 M. On the procedure: The compounds of the invention of formula I were evaluated in vitro for their ability to inhibit chemotaxis of polymorphonucleate leukocytes (hereinafter referred to as PMNs) and monocytes induced by the fractions of IL-8 and GRO-α. For this purpose, in order to isolate the PMNs from heparinized human blood, taken from healthy adult volunteers, mononucleates were removed by means of sedimentation on dextran (according to the procedure disclosed by W. J. Ming et al., J. Immunol., 138, 1469, 1987) and red blood cells by a hypotonic solution. The cell viability was calculated by exclusion with Trypan blue, whilst the ratio of the circulating polymorphonucleates was estimated on the cytocentrifugate after staining with Diff Quick.
During the chemotaxis assay (according to W. Falket et al., J. Immunol. Methods, 33, 239, 1980) PVP-free filters with a porosity of 5 μm and microchambers suitable for replication were used.
The compounds of the invention of formula (I) and (Ia) were evaluated at a concentration ranging between 10^−6 and 10^−10 M; for this purpose they were added, at the same concentration, both to the lower pores and the upper pores of the microchamber. Evaluation of the ability of the compounds of the invention of formula I to inhibit IL-8-induced chemotaxis of human monocytes was carried out according to the method disclosed by Van Damme J. et al. (Eur. J. Immunol., 19, 2367, 1989).
The biological activity of compounds showing high potency either as inhibitors of IL-8 induced PMN chemotaxis (CXCR1) or as dual inhibitors of IL-8 and GRO-α induced PMN chemotaxis (CXCR1/CXCR2) is reported in Table 1.
`Cc1c(CC(=O)O)cccc1C(C)C` [Example 2, (3-isopropyl-2-methylphenyl)acetic acid] returned an inhibition at 0.01 µM of 5 ± 10%.

Compound `CCC(=O)c1cccc(CC(=O)O)c1Cl` [Example 3, (2-chloro-3-propionylphenyl)acetic acid] gave an inhibition at 0.01 µM of 27 ± 8%.

As for `Cc1cc(CC(C)C)ccc1CC(=O)O` [Example 4, (4-isobutyl-2-methylphenyl)acetic acid], testing at 0.01 µM gave an inhibition of 4 ± 8%.

In turn, `CC(=O)c1ccc(CC(=O)O)n1C` [Example 11, (5-acetyl-1-methyl-1H-pyrrol-2-yl)acetic acid] yielded an inhibition at 0.01 µM of 65 ± 5%.

On to `CC(C)C(=O)c1ccc(CC(=O)O)n1C` [Example 12, (5-isobutyryl-1-methyl-1H-pyrrol-2-yl)acetic acid], for which the inhibition at 0.01 µM amounted to 65 ± 11%.

In turn, `CC(=O)c1ccc(CC(N)=O)n1C` [Example 19, (5-acetyl-1-methyl-1H-pyrrol-2-yl)acetamide] gave an inhibition at 0.01 µM of 44 ± 9%.

As to `CC(=O)c1ccc(CC(=O)NS(C)(=O)=O)n1C` [Example 41, (5-acetyl-1-methyl-1H-pyrrol-2-yl)acetyl methanesulfonamide], at 0.01 µM the inhibition was 46 ± 14%.

Compound `Cc1cc(CC(C)C)ccc1CC(=O)NS(C)(=O)=O` [Example 42, (4-isobutyl-2-methylphenyl)acetyl methanesulfonamide] had an inhibition at 0.01 µM of 0%.

The compound `Cc1cc(NS(=O)(=O)C(F)(F)F)ccc1CC(=O)NS(C)(=O)=O` [Example 43, {2-methyl-4-[(trifluoromethanesulfonyl)amino]phenyl}acetyl methanesulfonamide] returned an inhibition at 0.01 µM of 52 ± 5%.

The next test concerns the target T2, CXCR1 (Homo sapiens, UniProt P25024).
T2 construct: endogenous in cells; host or cells: human polymorphonucleate leukocytes (PMNs) isolated from blood of healthy volunteers
T2 sequence (P25024 1-350): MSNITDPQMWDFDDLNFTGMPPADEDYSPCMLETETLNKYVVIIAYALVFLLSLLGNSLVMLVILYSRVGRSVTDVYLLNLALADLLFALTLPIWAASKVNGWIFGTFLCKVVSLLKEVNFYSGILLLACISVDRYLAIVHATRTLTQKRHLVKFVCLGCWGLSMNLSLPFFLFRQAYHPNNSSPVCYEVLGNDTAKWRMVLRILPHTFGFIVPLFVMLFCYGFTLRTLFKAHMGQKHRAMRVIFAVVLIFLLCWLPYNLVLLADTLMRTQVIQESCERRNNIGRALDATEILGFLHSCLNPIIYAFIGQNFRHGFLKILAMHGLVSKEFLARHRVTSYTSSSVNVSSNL
Briefly: IL-8 induced PMN chemotaxis (CXCR1). The settings on record: compound c = 10^−8 M; IL-8 induced human PMN chemotaxis. It is filed as cell-based.
Regarding `Cc1c(CC(=O)O)cccc1C(C)C` [Example 2, (3-isopropyl-2-methylphenyl)acetic acid], at 0.01 µM the inhibition was 62 ± 8%.

For `CCC(=O)c1cccc(CC(=O)O)c1Cl` [Example 3, (2-chloro-3-propionylphenyl)acetic acid], testing at 0.01 µM gave an inhibition of 67 ± 14%.

Compound `Cc1cc(CC(C)C)ccc1CC(=O)O` [Example 4, (4-isobutyl-2-methylphenyl)acetic acid] showed an inhibition at 0.01 µM of 60 ± 10%.

In turn, `CC(=O)c1ccc(CC(=O)O)n1C` [Example 11, (5-acetyl-1-methyl-1H-pyrrol-2-yl)acetic acid] returned an inhibition at 0.01 µM of 60 ± 7%.

The compound `CC(C)C(=O)c1ccc(CC(=O)O)n1C` [Example 12, (5-isobutyryl-1-methyl-1H-pyrrol-2-yl)acetic acid] returned an inhibition at 0.01 µM of 58 ± 11%.

As to `CC(=O)c1ccc(CC(N)=O)n1C` [Example 19, (5-acetyl-1-methyl-1H-pyrrol-2-yl)acetamide], testing at 0.01 µM gave an inhibition of 54 ± 10%.

For the compound `CC(=O)c1ccc(CC(=O)NS(C)(=O)=O)n1C` [Example 41, (5-acetyl-1-methyl-1H-pyrrol-2-yl)acetyl methanesulfonamide], the inhibition at 0.01 µM stood at 50 ± 10%.

In the case of `Cc1cc(CC(C)C)ccc1CC(=O)NS(C)(=O)=O` [Example 42, (4-isobutyl-2-methylphenyl)acetyl methanesulfonamide], the inhibition at 0.01 µM stood at 67 ± 14%.

Regarding `Cc1cc(NS(=O)(=O)C(F)(F)F)ccc1CC(=O)NS(C)(=O)=O` [Example 43, {2-methyl-4-[(trifluoromethanesulfonyl)amino]phenyl}acetyl methanesulfonamide], the inhibition at 0.01 µM came to 60 ± 7%.

Staying with this test, now noted: result in words; IL-8 induced chemotaxis.
Turning to `CC(C)Cc1ccc(CC(=O)O)cc1` [ibufenac, 2-[4-isobutylphenyl]acetic acid, reference compound], the IL-8 inhibitory activity result was “do not exert any IL-8 inhibitory activity”.

For `O=C(O)Cc1cccc(C(=O)c2ccccc2)c1` [ketofenac, 2-[3-benzoylphenyl]acetic acid, reference compound], the IL-8 inhibitory activity entry is recorded as “do not exert any IL-8 inhibitory activity”.
